Measured values: US12134610B2, “Somatostatin subtype-2 receptor (SST2R) targeted therapeutics and uses thereof” (priority 2022, dated 2024)
Like-named read-outs stand apart in the source and are kept apart here. Starred links: 1 amine or outer side, 2 acyl side, 3 side chain; linkers in the order of their positions; H or OH if unused. Non-standard residues stand in square brackets, D forms with d. Residues, ends and D or L forms follow the SMILES beside them. *: point of attachment. X4 = Cc1cc(F)cc(-c2cnc(NCCNC(=O)CCOCCOCCOCCOCCC(=O)*)c(-c3nc4ccc(Cl)cc4[nH]3)c2N2CCC(N)CC2)c1; PABC(3-O-βDGlc) = O=C(OCc1ccc(N[*:1])c(O[C@@H]2O[C@H](CO)[C@@H](O)[C@H](O)[C@H]2O)c1)[*:2]; X1 = Cc1cc(F)cc(-c2cnc(NCCNC(=O)CCOCCC(=O)*)c(-c3nc4ccc(Cl)cc4[nH]3)c2N2CCC(N)CC2)c1; Dolaproine = CO[C@@H]([C@@H]1CCCN1)[C@@H](C)C(=O)O; Dil = CC[C@H](C)[C@H](NC)[C@@H](CC(=O)O)OC; PABC = O=C(OCc1ccc(N[*:1])cc1)[*:2]; X2 = C[C@@H](N*)[C@@H](O)c1ccccc1; Cit = NC(=O)NCCC[C@H](N)C(=O)O; NMeV = CN[C@H](C(=O)O)C(C)C

Experiments:
Assay type in all cases: cell-based
[1] = biological target: T1, human somatostatin receptor subtype 2 (Homo sapiens, UniProt P30874); test: Functional cAMP assay for SSTR2 agonists (HTRF) in CHO-K1 cells; conditions: CHO-K1 cells stably expressing human SST2, 20 min
T1 construct: expressed in transfected cells
In short: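 Agonism scored as loss of NKH477 (1.6 μM)-driven cAMP, with IBMX present, after 20 min, 37° C. exposure of stably transfected CHO-K1 cells to compound dilutions (typically 0-10,000 nM). Lysates read by time-resolved FRET; cAMP interpolated from standard curve and EC50 derived.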

[2] = test system: NCI-H524 (ATCC) human small cell lung cancer cells
In short: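 CellTiter-Glo luminescence after a 2 h SMDC pulse (top dose 1 uM, 2-fold dilutions, 11 points), medium wash, then 70 h recovery. Cells were seeded at 5,000/well and dosed 24 h later. % inhibition vs control gave IC50 via four-parameter fit.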

SST2 = biological target: T2, SST2 (Homo sapiens, UniProt P30874); test: PathHunter CHO-K1 SST2 internalization assay; conditions: PathHunter CHO-K1 SST2, 90 min
T2 construct: host or cells: PathHunter CHO-K1 SST2 cells
In short: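 IC50 comes from four-parameter curves on background-corrected duplicates of Beta-Glo luminescence, read after 60 min at room temperature in the dark. Before that, CHO-K1 SST2 internalization cells (48 h post-seeding) received SMDC as eleven threefold dilutions, 10 uM highest final, for 90 min at 37 C.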

T1 sequence (P30874 whole entry): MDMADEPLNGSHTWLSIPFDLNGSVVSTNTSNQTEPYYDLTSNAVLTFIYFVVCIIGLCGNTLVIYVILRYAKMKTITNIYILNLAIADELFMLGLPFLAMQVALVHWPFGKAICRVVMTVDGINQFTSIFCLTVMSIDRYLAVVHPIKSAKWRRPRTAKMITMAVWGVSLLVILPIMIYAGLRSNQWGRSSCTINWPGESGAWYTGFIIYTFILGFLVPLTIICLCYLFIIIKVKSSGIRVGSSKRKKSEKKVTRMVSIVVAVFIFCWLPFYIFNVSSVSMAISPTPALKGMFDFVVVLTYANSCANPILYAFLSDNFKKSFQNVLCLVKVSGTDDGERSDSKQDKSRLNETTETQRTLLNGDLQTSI
T2 sequence (P30874 whole entry): as above

| SMILES | EC50 ([1]; read-out: hSST2 cAMP Avg EC50) | EC50 ([2]; 2 h) | EC50 (SST2; read-out: Internalization EC50) | EC50 ([1]; hSST2 cAMP Avg EC50 (nM)) | EC50 ([2]; 2 h treatment, washout, additional 70 h, read-out: H524 EC50) | EC50 (SST2; Internalization EC50 (nM)) |
| --- | --- | --- | --- | --- | --- | --- |
| COc1cc2cc(c1Cl)N(C)C(=O)CC(OC(=O)[C@@H](C)N(C)C(=O)CCSSCCNC(=O)CN1CCN(CC(=O)O)CCN(CC(=O)NCCNc3ncc(-c4cc(C)cc(F)c4)c(N4CCC(N)CC4)c3-c3nc4ccc(Cl)cc4[nH]3)CC1)[C@]1(C)OC1[C@@H](C)C1C[C@@](O)(NC(=O)O1)[C@H](OC)/C=C/C=C(\C)C2 (stereo partly drawn) [Compound 9] | 0.13 nM | 379 nM | 7.7 nM |  |  |  |
| CC[C@H](C)[C@@H]([C@@H](CC(=O)N1CCC[C@H]1[C@H](OC)[C@@H](C)C(=O)N[C@H](C)[C@@H](O)c1ccccc1)OC)N(C)C(=O)[C@@H](NC(=O)[C@H](C(C)C)N(C)C(=O)OCc1ccc(NC(=O)[C@H](C)NC(=O)[C@@H](NC(=O)CCOCCNCCNc2ncc(-c3cc(C)cc(F)c3)c(N3CCC(N)CC3)c2-c2nc3ccc(Cl)cc3[nH]2)C(C)C)c(O[C@@H]2O[C@H](C(=O)O)[C@@H](O)[C@H](O)[C@H]2O)c1)C(C)C [Compound 130] | 0.29 nM | 140 nM | 25 nM |  |  |  |
| CC[C@H](C)[C@@H]([C@@H](CC(=O)N1CCC[C@H]1[C@H](OC)[C@@H](C)C(=O)N[C@H](C)[C@@H](O)c1ccccc1)OC)N(C)C(=O)[C@@H](NC(=O)[C@H](C(C)C)N(C)C(=O)OCc1ccc(NC(=O)[C@H](CCCNC(N)=O)NC(=O)[C@@H](NC(=O)[C@H](CCC(N)=O)NC(=O)[C@H](CCC(=O)O)NC(=O)CCOCCOCCOCCOCCC(=O)NCCNc2ncc(-c3cc(C)cc(F)c3)c(N3CCC(N)CC3)c2-c2nc3ccc(Cl)cc3[nH]2)C(C)C)cc1)C(C)C [Compound 119] (X4-EQV[Cit][PABC][NMeV]V[Dil][Dolaproine]-X2) | 0.14 nM | 16 nM | 5.4 nM |  |  |  |
| COc1cc2cc(c1Cl)N(C)C(=O)CC(OC(=O)[C@@H](C)N(C)C(=O)CCS[C@H]1CC(=O)N(CC3CCC(C(=O)NCCCC[C@H](N)C(=O)NCCNc4ncc(-c5cc(C)cc(F)c5)c(N5CCC(N)CC5)c4-c4nc5ccc(Cl)cc5[nH]4)CC3)C1=O)[C@]1(C)OC1[C@@H](C)C1C[C@@](O)(NC(=O)O1)[C@H](OC)/C=C/C=C(\C)C2 (stereo partly drawn) [Compound 7] | 0.15 nM | 355 nM | 21 nM |  |  |  |
| CC[C@H](C)[C@@H]([C@@H](CC(=O)N1CCC[C@H]1[C@H](OC)[C@@H](C)C(=O)N[C@H](C)[C@@H](O)c1ccccc1)OC)N(C)C(=O)[C@@H](NC(=O)[C@H](C(C)C)N(C)C(=O)OCc1ccc(NC(=O)[C@H](C)NC(=O)[C@@H](NC(=O)[C@H](CS(=O)(=O)O)NC(=O)CCOCCOCCOCCOCCC(=O)NCCNc2ncc(-c3cc(C)cc(F)c3)c(N3CCC(N)CC3)c2-c2nc3ccc(Cl)cc3[nH]2)C(C)C)cc1C(=O)NCCN)C(C)C [Compound 158] | 0.24 nM | 3 nM | 12 nM |  |  |  |
| CC[C@H](C)[C@@H]([C@@H](CC(=O)N1CCC[C@H]1[C@H](OC)[C@@H](C)C(=O)N[C@H](C)[C@@H](O)c1ccccc1)OC)N(C)C(=O)[C@@H](NC(=O)[C@H](C(C)C)N(C)C(=O)OCc1ccc(NC(=O)[C@H](C)NC(=O)[C@@H](NC(=O)[C@H](CCC(=O)O)NC(=O)CCOCCOCCOCCOCCC(=O)NCCNc2ncc(-c3cc(C)cc(F)c3)c(N3CCC(N)CC3)c2-c2nc3ccc(Cl)cc3[nH]2)C(C)C)c(O[C@@H]2O[C@H](C(=O)O)[C@@H](O)[C@H](O)[C@H]2O)c1)C(C)C [Compound 152] | 0.2 nM | 91 nM | 5.8 nM |  |  |  |
| CC[C@H](C)[C@@H]([C@@H](CC(=O)N1CCC[C@H]1[C@H](OC)[C@@H](C)C(=O)N[C@H](C)[C@@H](O)c1ccccc1)OC)N(C)C(=O)[C@@H](NC(=O)[C@H](C(C)C)N(C)C(=O)OCc1ccc(NC(=O)[C@H](CCCNC(N)=O)NC(=O)[C@@H](NC(=O)[C@H](CCC(N)=O)NC(=O)CCOCCC(=O)NCCNc2ncc(-c3cc(C)cc(F)c3)c(N3CCC(N)CC3)c2-c2nc3ccc(Cl)cc3[nH]2)C(C)C)cc1C(=O)NCCN)C(C)C [Compound 57] | 0.38 nM | 15 nM | 5.7 nM |  |  |  |
| CCC(C)C(C(CC(=O)N1CCCC1C(OC)C(C)C(=O)NC(C)C(O)c1ccccc1)OC)N(C)C(=O)C(NC(=O)C(C(C)C)N(C)C(=O)OCc1ccc(NC(=O)[C@H](CCCNC(N)=O)NC(=O)[C@@H](NC(=O)CNC(=O)[C@H](Cc2ccccc2)NC(=O)CNC(=O)CNC(=O)CCOCCC(=O)NCCNc2ncc(-c3cc(C)cc(F)c3)c(N3CCC(N)CC3)c2-c2nc3ccc(Cl)cc3[nH]2)C(C)C)cc1)C(C)C (stereo in doubt) [Compound 30] | 0.56 nM | 28.6 nM | 7.1 nM |  |  |  |
| CC[C@H](C)[C@@H]([C@@H](CC(=O)N1CCC[C@H]1[C@H](OC)[C@@H](C)C(=O)N[C@H](C)[C@@H](O)c1ccccc1)OC)N(C)C(=O)[C@@H](NC(=O)[C@H](C(C)C)N(C)C(=O)OCc1ccc(NC(=O)[C@H](CCCNC(N)=O)NC(=O)[C@@H](NC(=O)[C@H](CCC(=O)O)NC(=O)CCOCCC(=O)NCCNc2ncc(-c3cc(C)cc(F)c3)c(N3CCC(N)CC3)c2-c2nc3ccc(Cl)cc3[nH]2)C(C)C)c(O[C@@H]2O[C@H](CO)[C@@H](O)[C@H](O)[C@H]2O)c1)C(C)C [Compound 135] (X1-EV[Cit][PABC(3-O-βDGlc)][NMeV]V[Dil][Dolaproine]-X2) | 0.15 nM | 38 nM | 2.8 nM |  |  |  |
| CC[C@H](C)[C@@H]([C@@H](CC(=O)N1CCC[C@H]1[C@H](OC)[C@@H](C)C(=O)N[C@H](C)[C@@H](O)c1ccccc1)OC)N(C)C(=O)[C@@H](NC(=O)[C@H](C(C)C)N(C)C(=O)OCc1ccc(NC(=O)[C@H](CCCNC(N)=O)NC(=O)[C@@H](CC(=O)CCOCCNCCNc2ncc(-c3cc(C)cc(F)c3)c(N3CCC(N)CC3)c2-c2nc3ccc(Cl)cc3[nH]2)C(C)C)cc1C(=O)NCCN)C(C)C [Compound 87] | 0.4 nM | 42 nM | 26 nM |  |  |  |
| CC[C@H](C)[C@@H]([C@@H](CC(=O)N1CCC[C@H]1[C@H](OC)[C@@H](C)C(=O)N[C@H](C)[C@@H](O)c1ccccc1)OC)N(C)C(=O)[C@@H](NC(=O)[C@H](C(C)C)N(C)C(=O)OCc1ccc(NC(=O)[C@H](CCCNC(N)=O)NC(=O)[C@@H](NC(=O)[C@H](CCC(N)=O)NC(=O)CCOCCC(=O)NCCNc2ncc(-c3cc(C)cc(F)c3)c(N3CCC(N)CC3)c2-c2nc3ccc(Cl)cc3[nH]2)C(C)C)cc1C(N)=O)C(C)C [Compound 112] | 0.16 nM | 10 nM | 2.9 nM |  |  |  |
| CC[C@@]1(O)C(=O)OCc2c1cc1n(c2=O)Cc2c-1nc1cc(F)c(C)c3c1c2[C@@H](NC(=O)OCc1ccc(NC(=O)[C@H](CCCNC(N)=O)NC(=O)[C@@H](NC(=O)[C@H](CCC(=O)O)NC(=O)CCOCCC(=O)NCCNc2ncc(-c4cc(C)cc(F)c4)c(N4CCC(N)CC4)c2-c2nc4ccc(Cl)cc4[nH]2)C(C)C)cc1C(=O)NCCN)CC3 [Compound 94] |  |  |  | 0.16 nM | 260 nM | 2.4 nM |
| CC[C@H](C)[C@@H]([C@@H](CC(=O)N1CCC[C@H]1[C@H](OC)[C@@H](C)C(=O)N[C@H](C)[C@@H](O)c1ccccc1)OC)N(C)C(=O)[C@@H](NC(=O)[C@H](C(C)C)N(C)C(=O)OCc1ccc(NC(=O)[C@H](CCCNC(N)=O)NC(=O)[C@@H](NC(=O)[C@H](CCC(=O)O)NC(=O)CCOCCOCCOCCOCCC(=O)NCCNc2ncc(-c3cc(C)cc(F)c3)c(N3CCC(N)CC3)c2-c2nc3ccc(Cl)cc3[nH]2)C(C)C)cc1C(=O)NCCN)C(C)C [Compound 47] | 0.091 nM | 18.7 nM | 9 nM |  |  |  |
